Values joined by “and” are separate entries in the source; they are usually repeats but may differ in a detail not shown here. Identical values can stand only once. Inconclusive results and toxic doses are left out. The calls were made as follows: active = survival T/C of 150% or more; inactive = T/C below 125% in these data.
Tested on: CD2F1 mice, L1210 leukemia ip, survival T/C
Experiment: NCI In Vivo Anticancer Drug Screen. Data for tumor model L1210 Leukemia (intraperitoneal) in CD2F1 (CDF1) mice
Conditions: higher = longer survival
In short: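 Tumor-bearing mice (transplanted tumor) were split into treated and vehicle control groups, and the measured endpoint of each treated group was divided by that of its vehicle controls.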

[1] = endpoint: mean survival time, dose: 100.0 mg/kg/injection, schedule: Q01DX009 (ip), vehicle: saline with Tween-80
[2] = endpoint: mean survival time, dose: 200.0 mg/kg/injection, schedule: Q01DX009 (ip), vehicle: saline with Tween-80
[3] = endpoint: mean survival time, dose: 400.0 mg/kg/injection, schedule: Q01DX009 (ip), vehicle: saline with Tween-80
[4] = endpoint: mean survival time, dose: 100.0 mg/kg/injection, schedule: Q04DX003 (ip), vehicle: saline with Tween-80
[5] = endpoint: mean survival time, dose: 200.0 mg/kg/injection, schedule: Q04DX003 (ip), vehicle: saline with Tween-80
[6] = endpoint: mean survival time, dose: 400.0 mg/kg/injection, schedule: Q04DX003 (ip), vehicle: saline with Tween-80

Measured: T/C

[CH3][Sn]([Br])([Br])[CH2]CCCBr
inactive: endpoint: mean survival time, dose: 0.39 mg/kg/injection, schedule: Q01DX009 (ip), vehicle: saline 90 % of control | endpoint: mean survival time, dose: 0.78 mg/kg/injection, schedule: Q01DX009 (ip), vehicle: saline 97 % of control | endpoint: mean survival time, dose: 1.56 mg/kg/injection, schedule: Q01DX009 (ip), vehicle: saline 97 % of control | endpoint: mean survival time, dose: 6.25 mg/kg/injection, schedule: Q01DX009 (ip), vehicle: saline 110 % of control

C=CC1(C)CC(=O)C2(O)C(C)(O1)C(OC(C)=O)C(O)C1C(C)(C)CCC(O)C12C (stereo not drawn)
inactive: endpoint: median survival time, dose: 4.0 mg/kg/injection, schedule: Q01DX005 (ip), vehicle: other 98 % of control | endpoint: median survival time, dose: 8.0 mg/kg/injection, schedule: Q01DX005 (ip), vehicle: other 101 % of control | endpoint: median survival time, dose: 16.0 mg/kg/injection, schedule: Q01DX005 (ip), vehicle: other 93 % of control

O=[N+]([O-])c1cc(S(=O)(=O)c2ccc(N3CCCCC3)c([N+](=O)[O-])c2)ccc1N1CCCCC1
inactive: [1] 91 % of control | [2] 97 % of control | [3] 95 % of control

O=C(O)C(/C=C/c1ccccc1)c1ccccc1 (stereo not drawn)
inactive: endpoint: mean survival time, dose: 100.0 mg/kg/injection, schedule: Q01DX001 (ip), vehicle: saline with Tween-80 112 % of control | [1] 101 % of control | [4] 92 % of control | endpoint: mean survival time, dose: 200.0 mg/kg/injection, schedule: Q01DX001 (ip), vehicle: saline with Tween-80 95 % of control | [5] 91 % of control | endpoint: mean survival time, dose: 400.0 mg/kg/injection, schedule: Q01DX001 (ip), vehicle: saline with Tween-80 88 % of control | [3] 103 % of control | [6] 91 % of control

COc1ccc(CC(=O)O)cc1OC
inactive: [1] 94 % of control | [2] 103 % of control | [3] 89 % of control

CCC(=O)OC1(c2ccccc2)CCN(C/C=C/c2ccc(F)cc2)CC1
inactive: endpoint: mean survival time, dose: 6.25 mg/kg/injection, schedule: Q01DX009 (ip), vehicle: saline with Tween-80 98 % of control | endpoint: mean survival time, dose: 12.5 mg/kg/injection, schedule: Q01DX009 (ip), vehicle: saline with Tween-80 98 % of control | endpoint: mean survival time, dose: 25.0 mg/kg/injection, schedule: Q01DX009 (ip), vehicle: saline with Tween-80 110 % of control

COC(=O)C1=NNC(C(=O)OC)=NN1
inactive: endpoint: mean survival time, dose: 12.5 mg/kg/injection, schedule: Q01DX009 (ip), vehicle: water 95 % of control | endpoint: mean survival time, dose: 25.0 mg/kg/injection, schedule: Q01DX009 (ip), vehicle: water 95 % of control | endpoint: mean survival time, dose: 50.0 mg/kg/injection, schedule: Q01DX009 (ip), vehicle: water 98 % of control | endpoint: mean survival time, dose: 100.0 mg/kg/injection, schedule: Q01DX009 (ip), vehicle: water 105 % of control | endpoint: mean survival time, dose: 200.0 mg/kg/injection, schedule: Q01DX009 (ip), vehicle: water 90 % of control

CN(CCCOS(C)(=O)=O)CCCOS(C)(=O)=O
inactive: endpoint: mean survival time, dose: 6.3 mg/kg/injection, schedule: Q01DX009 (ip), vehicle: saline 123 % of control | endpoint: mean survival time, dose: 6.3 mg/kg/injection, schedule: Q04DX003 (ip), vehicle: saline 117 % of control and 119 % of control and 109 % of control | endpoint: mean survival time, dose: 8.4 mg/kg/injection, schedule: Q01DX009 (oral), vehicle: saline 104 % of control | endpoint: mean survival time, dose: 12.5 mg/kg/injection, schedule: Q01DX001 (ip), vehicle: saline 108 % of control | endpoint: mean survival time, dose: 39.0 mg/kg/injection, schedule: Q01DX009 (oral), vehicle: saline 121 % of control | endpoint: mean survival time, dose: 65.0 mg/kg/injection, schedule: Q01DX001 (oral), vehicle: saline 104 % of control | endpoint: mean survival time, dose: 100.0 mg/kg/injection, schedule: Q01DX009 (ip), vehicle: saline 87 % of control and 105 % of control and 93 % of control | endpoint: mean survival time, dose: 108.0 mg/kg/injection, schedule: Q01DX001 (oral), vehicle: saline 102 % of control | endpoint: mean survival time, dose: 200.0 mg/kg/injection, schedule: Q01DX001 (ip), vehicle: saline 118 % of control | endpoint: mean survival time, dose: 200.0 mg/kg/injection, schedule: Q04DX003 (ip), vehicle: saline 87 % of control and 88 % of control | endpoint: mean survival time, dose: 300.0 mg/kg/injection, schedule: Q01DX001 (oral), vehicle: saline 114 % of control

O=C(/C=N/O)Nc1ccccc1
inactive: [4] 101 % of control | [5] 100 % of control | [6] 95 % of control
